Data set [1] concerns the target T1, 524G transcription factor (Homo sapiens, UniProt P03372, H524G).
T1 construct: fragment B=ER amino acids 258-554; expressed in transfected cells; host or cells: HeLa cells transduced with Av3 or gutless adenoviral vector
T1 sequence (P03372 258-554 H524G): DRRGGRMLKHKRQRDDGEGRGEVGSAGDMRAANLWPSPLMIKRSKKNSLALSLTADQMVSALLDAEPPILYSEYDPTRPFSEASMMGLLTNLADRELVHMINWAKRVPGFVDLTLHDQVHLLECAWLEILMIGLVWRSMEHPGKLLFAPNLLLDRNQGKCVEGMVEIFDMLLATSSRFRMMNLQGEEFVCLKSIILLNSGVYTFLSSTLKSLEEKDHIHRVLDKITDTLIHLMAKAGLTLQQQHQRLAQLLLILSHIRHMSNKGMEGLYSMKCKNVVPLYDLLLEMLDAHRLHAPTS
The experiment in a line: In vitro inducible luciferase expression with gutless adenoviral transcription factor vector in Hela cells. The class given is cell-based.

Another data set concerns the target T2, wild-type ER (Homo sapiens, UniProt P03372).
T2 construct: expressed in transfected cells; host or cells: COS-7
T2 sequence (P03372 1-595): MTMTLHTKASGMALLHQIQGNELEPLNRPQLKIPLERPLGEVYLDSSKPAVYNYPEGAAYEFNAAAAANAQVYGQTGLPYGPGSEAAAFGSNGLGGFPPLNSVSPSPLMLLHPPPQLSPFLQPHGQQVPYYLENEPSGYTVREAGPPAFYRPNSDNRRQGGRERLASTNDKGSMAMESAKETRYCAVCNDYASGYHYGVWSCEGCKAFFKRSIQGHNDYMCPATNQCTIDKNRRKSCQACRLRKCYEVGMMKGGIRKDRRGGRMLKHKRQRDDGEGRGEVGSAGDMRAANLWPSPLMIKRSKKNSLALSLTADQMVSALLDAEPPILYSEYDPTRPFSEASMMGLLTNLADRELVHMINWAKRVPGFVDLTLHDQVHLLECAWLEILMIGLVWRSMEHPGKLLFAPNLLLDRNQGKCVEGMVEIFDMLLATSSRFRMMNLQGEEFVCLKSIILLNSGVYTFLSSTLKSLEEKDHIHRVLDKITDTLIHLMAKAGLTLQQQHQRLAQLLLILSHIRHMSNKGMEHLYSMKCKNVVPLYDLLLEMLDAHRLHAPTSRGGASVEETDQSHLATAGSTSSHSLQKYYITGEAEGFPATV
The experiment in a line: Inhibition of E2 activity on wild-type ER, COS-7 cells with pHEGO and ERE luciferase reporter. The class given is cell-based. The following applies: IC50 ± STDEV, pHEGO and pERETkLuc, E2 (3 nM) + 0.1 to 1000 nM compound. The method, then:
For transfection, 0.5 microgram of pERE2tkluc reporter plasmid, 20 ng of pHEGO, and 0.5 microgram of pCIneo inert carrier DNA were combined with 60 microliter serum-free DMEM and 5 microliter Qiagen Superfect transfection reagent, vortexed for 10s, and set at room temperature for 10 min. Each sample was diluted with 350 microliters of steroid-free media, mixed, and added to each well. Following 2 hr 30 min incubation at 37° C., cells were washed once with Dulbecco's phosphate buffered saline (DPBS), and refed with steroid-free media. […] Approximately 24 hr after treatment, cells were washed once with DPBS, then 200 microliter of reporter lysis buffer was added per well and frozen at −80° C. Cells were thawed at room temperature on an orbital shaker for 1 hr 30 min. A 10 microliter aliquot of lysate was transferred to 96 well opaque plates, and relative luciferase units (RLU) determined on a luminometer using the appropriate firefly luciferase substrate.
Note that the nonspecific activity is a noncompetable element in the assay system.
In order to dissolve them completely, all the solutions were warmed in 55° C. or boiled water bath for 10 to 20 min before use. The DMSO in cell culture medium was maintained to 0.01% for all the drug concentration tested as well as the vehicle control.

In a further data set the target is T3, Av3-H524G (Homo sapiens, UniProt P03372, H524G).
T3 construct: fragment B=ER amino acids 258-554; expressed in transfected cells; host or cells: HeLa cells transduced with Av3 or gutless adenoviral vector
T3 sequence (P03372 258-554 H524G): T1 sequence (P03372 258-554 H524G)
The experiment in a line: Transactivation on adenoviral (Av3)-delivered ER variant, luciferase in HeLa cells. The class given is cell-based. The following applies: 100 nM test compound, 24 hrs (FIG. 5). From the text: Xu et al., Molecular Therapy, 3:262-273, 2000.

The next data set has as its target T4, ER-LBD H524G (Homo sapiens, UniProt P03372, H524G).
T4 construct: expressed in transfected cells
T4 sequence (P03372 311-547 H524G limits assumed): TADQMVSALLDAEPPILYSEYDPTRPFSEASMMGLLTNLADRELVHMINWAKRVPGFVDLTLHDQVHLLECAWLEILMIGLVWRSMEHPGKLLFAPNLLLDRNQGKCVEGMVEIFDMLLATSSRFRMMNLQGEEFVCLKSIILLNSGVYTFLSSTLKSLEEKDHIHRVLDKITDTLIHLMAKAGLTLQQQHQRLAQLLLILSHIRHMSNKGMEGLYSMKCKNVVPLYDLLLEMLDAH
In words: ER-LBD H524G transactivation, cell-based reporter gene assay. The method, then:
(§1) In order to evaluate the ability of the fusion proteins C7LBD A, B, and the related LBD mutants to regulate transgene expression, a standard co-transfection reporter assay was performed. A reporter construct, henceforth known as 6×2C7pGL3Luc, containing six copies of a directly repeated C7 binding site (6×2C7) inserted upstream of an SV40 promoter fragment and reporter gene encoding firefly luciferase (pGL3Pro; Promega) was transfected along with the designated fusion protein and assayed as described below. Note the consensus C7 binding site is 5′-GCG TGG GCG-3′.
(§2) Cultured cells (HeLa, Cos, Hep3B or other) were seeded at 5×10^4 cells/well in a 24 well plate prior to the day of transfection in DMEM Phenol-free media, supplemented with L-glutamine and 5% (v/v) charcoal-dextran stripped Fetal Bovine serum (sFBS). Cells were transfected using the Qiagen Superfect Transfection method. For each well 1 μg of total DNA, containing 0.5 μg luciferase reporter plasmid (6×2C7pGL3Luc), 0.1 μg of chimeric activator DNA (e.g., C7LBDA, C7LBDB, or mutants thereof ), and 0.4 μg of an inert carrier plasmid DNA (p3Kpn), was mixed with 60 μL of DMEM phenol-free/serum free media, and 5 μL of Superfect reagent. In general, about 10 ng to about 0.5 μg of chimeric activator DNA was used for each well.
The mixture was vortexed for 10 seconds and incubated at room temperature for 10 minutes, followed by the addition of 350 μL of DMEM phenol-free 5% sFBS media. Cells were washed once with Dulbecco's phosphate buffered saline (DPBS) and the transfection mixture placed on the cells. Cells were washed once with DPBS following a 2.5 hour incubation at 37 degrees Celsius, and re-fed with DMEM Phenol-free 5% sFBS media.
Cells were treated 24 hours later by washing once with DPBS and adding 200 μL 1X reporter lysis buffer (Promega). Plates were frozen at -80° C. and on the day of assay thawed at room temperature for 1.5 hours on an orbital shaker at 100 RPM. After allowing for cellular debris to settle, lysate was transferred to a new tube, diluted 1:10 with 1X reporter lysis buffer and 10 μL transferred to 96 well opaque plates.
The sequence of the oligonucleotides used for the H524G modification were […] […] Mutated plasmids were isolated and their sequence confirmed.

A further data set has as its target T5, H524A mutant (Homo sapiens, UniProt P03372, H524A).
T5 construct: plasmids encoding the fusion proteins ER-LBD-C7LBDa and C7LBDb to substitute either alanine or glycine for histidine at residue 524; expressed in transfected cells
T5 sequence (P03372 311-547 H524A limits assumed): T4 sequence (P03372 311-547 H524G limits assumed) with G214A
In words: H524A mutant activation, cell-based reporter gene assay. The following applies: 10 nM ligand. The method, then: as §1
as §2, with “well. […]” for “well.”

A short description of data set [2]: BIV lentiviral reporter vector without activator, eGFP expression by FACS in 293T cells. The data set is classed as cell-based. The following applies: reporter BIVC2H2FOSEGFP, activator none; 100 nM, forty-eight hours.
Source text: One of the reporter constructs described above was introduced individually into 3×10^6 293T cells along with other components of the BIV four component packaging system (U.S. patent application of Luo et al. filed Feb. 4, 2002 entitled “Recombinant Bovine Immunodeficiency Virus Based Gene Transfer System” (Atty Docket No. 2048-127; serial number to be assigned) and Matukonis et al., (“Development of Second and Third Generation of Bovine Immunodeficiency Virus Based Gene Transfer Systems” Human Gene Therapy, in press (2002)) by CaPO4-mediated transient transfection. Eighteen hours post transfection, media were replaced with fresh DMEM containing 10% FBS and 200 mM butyric acid. Forty-eight hours later, conditioned media were collected from the transfected cells. Two mls of conditioned media from each transfection plus 2 mls of DMEM/FBS were added to 2×10^5 293T cells in individual wells of a six well tissue culture plate. In addition, 2 mls of conditioned media from either the pBIVC2H2FOSeGFP transfections were combined with 2 mls of conditioned media from the pBIVMNDC7 or pBIVMND2AS transfections and added to 2×10^5 293T cells. 8 μg/ml protamine sulfate were added to each transduction reaction. Four hours later, conditioned media was removed from the transduced cells and replaced with fresh DMEM/FBS. […]

Residue numbers refer to the chain shown, from its start. Some results are limits rather than exact numbers.

As to `C/C(=C(/c1ccc(O)cc1)c1ccc(OCCN(C)C)cc1)c1ccc(N2CCOCC2)cc1` [LBF580, 4-((1E)-1-{4-[2-(dimethylamino)ethoxy]phenyl}-2-(4-morpholin-4-ylphenyl)prop-1-enyl)phenol], in data set [1] (100 nM ligand vs without ligand), the “Fold Induction” value was found to be 8 fold. In addition, the “Luciferase Expression Levels (Relative Light Units)” value in data set [1] ((+) induced with 100 nM ligand, mean +/− standard error (n = 4)) is recorded as 285695 +/− 2331 Relative Light Units. The IC50 at wild-type ER is 253 nM. The “luciferase activity over the basal level” value at Av3-H524G is recorded as 16 times. Moreover, at ER-LBD H524G (10 nM), the “degree of induction of H524G as compared to estrogen” value is on record as “nine”. Also, at ER-LBD H524G (10 nM ligand, H524G (FIG. 6)), the fold induction at 0.01 µM came out at 138 and the “fold induction at 10 nM” value is reported as 140 fold. For the same compound, at ER-LBD H524G (Table 3, read-out: EC50 ± STDEV), the EC50 is at most 25 nM. Besides, the fold induction at 0.01 µM at H524A mutant amounted to 4.

Turning to 4-hydroxytamoxifen [4-OHT], the “% Gated Cells” value in data set [2] is on record as 0.36%.

What is called IC50 is the concentration needed to halve the response being measured. Broadly, the fold induction is the ratio of treated to control signal. A high value points to a strong induction. For orientation: EC50 means the concentration that produces a half-maximal response.

The values above are taken from patent publication US20030143559A1, “Novel estrogen receptor ligand binding domain variants and novel ligands and pharmaceutical compositions” (priority 2001, published 2003).
